Where two headings read alike, the source gives them in different places.
How the values were obtained:
[1] = system: cytokine production in human white blood cells (hWBC); experiment: In vitro LPS/R848/CpG-induced cytokine production assay in hWBC; assay type: cell-based; conditions: WBC
Method: Compounds of the present invention were also studied in in vitro LPS/R848/CpG-induced cytokine production assays. Exemplary protocols follow.
Whole Blood (LPS): 13 mL of whole blood solution was prepared by combining whole blood in no serum medium with a ratio of 1:1. Cells were seeded in a 96-well plate with 130 ul/well of the cell suspension according to the plate map. 9 ul of 30 mM compound solution was added into the wells in the assigned rows, then serial solutions with 4× dilutions were made. That is, add 9 uL of 100% DMSO into each of the rest wells and take 3 uL of compound solution from the one-step higher concentration solution and mix well with the DMSO. For the second compound master plate, 196 uL of the growth medium (no serum media) were added into each of the wells and 4 uL of the compound solution from the first compound master plate was added and mixed with the media. Cells were treated for 0.5 h by adding 20 uL of the compound and the control solutions prepared in the second master plate to each well according to the plate map. Cells were stimulated with a) 0.1 ug/mL of LPS overnight for whole blood assay; b) 0.01 ug/mL of LPS overnight for hWBC assay. Plates were sealed with sealing films and the plates were centrifuged at 3000 rpm at 4 degrees C. for 5 min. The supernatants were transferred, and 100 ul of working Capture antibody solution was added to each well. The plates were sealed and incubated overnight at RT. IL-6, IFN-α or TNF-α detection antibody labeled with biotin: Added 100 uL of the Detection Antibody solution to each well. Covered the plate and incubated for 2 h at RT. Added 100 uL of Streptavidin-HRP solution to each well. Covered the plate and incubate for 20 min at RT in dark. Added 100 uL of Substrate Solution to each well. Incubated for 20 min at RT in dark. Added 50 uL of Stop Solution to each well. Gently tapped the plate to ensure thorough mixing. Determined the optical density of each well immediately, using a microplate reader set to 450 nm and also read at 540 nm or 570 nm for correction if wavelength correction is not available.

IRAK4 = biological target: T1, IRAK4 (Homo sapiens, UniProt Q9NWZ3); experiment: IRAK-4 activity inhibition assay (Caliper); assay type: biochemical; conditions: 3.5 nM IRAK4, 37 μM ATP, 1.5 μM Peptide 8
T1 construct: purchased CARNA Bioscience 09-145
T1 sequence (Q9NWZ3 1-460): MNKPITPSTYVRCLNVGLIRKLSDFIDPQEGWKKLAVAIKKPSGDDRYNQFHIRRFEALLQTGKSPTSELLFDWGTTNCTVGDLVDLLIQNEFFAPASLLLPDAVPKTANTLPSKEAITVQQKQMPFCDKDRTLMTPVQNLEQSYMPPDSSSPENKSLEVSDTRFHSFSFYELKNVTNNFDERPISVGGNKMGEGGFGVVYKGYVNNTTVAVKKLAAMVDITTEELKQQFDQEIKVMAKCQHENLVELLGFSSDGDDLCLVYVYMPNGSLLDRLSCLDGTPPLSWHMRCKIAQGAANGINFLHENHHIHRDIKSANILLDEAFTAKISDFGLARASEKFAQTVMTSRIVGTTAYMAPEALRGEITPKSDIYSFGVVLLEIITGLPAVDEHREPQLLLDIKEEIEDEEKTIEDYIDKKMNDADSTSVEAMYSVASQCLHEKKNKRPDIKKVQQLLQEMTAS
In short: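 Caliper mobility-shift assay: 3.5 nM IRAK4 preincubated 10 min with compound (10-point series, duplicates), then 1.5 μM peptide 8 and 37 μM ATP added in HEPES pH 7.5 with Mg2+/Mn2+ and DTT, 40 min at 28°C before EDTA stop. Percent inhibition from substrate conversion relative to DMSO and no-enzyme controls.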

[2] = Homo sapiens, CPG 0.5 uM, overnight, read-out: IFN-α production IC50
[3] = Homo sapiens, LPS 0.1 uM, overnight, read-out: TNF-α production IC50
[4] = Homo sapiens, R848 1 uM, 5 h, read-out: TNF-α production IC50

| IC50 ([1]; CPG 0.5 uM, overnight, read-out: IFN-α production IC50) [nM] | IC50 ([1]; LPS 0.1 uM, overnight, read-out: TNF-α production IC50) [nM] | IC50 ([1]; R848 1 uM, 5 h, read-out: TNF-α production IC50) [nM] | IC50 (IRAK4) [nM] | IC50 [1, 2] [nM] | IC50 [1, 3] [nM] | IC50 [1, 4] [nM] | Compound |
| --- | --- | --- | --- | --- | --- | --- | --- |
| ≤ 250 | ≤ 250 | ≤ 250 | ≤ 1000 | – | – | – | 2-methyl-N5-(1-methyl-1H-pyrazol-4-yl)-N7-((1r,4r)-4-morpholinocyclohexyl)thiazolo[5,4-d]pyrimidine-5,7-diamine [Compound I-24] |
| – | – | – | ≤ 1000 | ≤ 250 | 250 to 1000 | 250 to 1000 | CCc1nc2c(N[C@H]3CC[C@H](N4CCOCC4)CC3)nc(Nc3cnn(C)c3)nc2s1 [Compound I-7, 2-ethyl-N5-(1-methyl-1H-pyrazol-4-yl)-N7-((1r,4r)-4-morpholinocyclohexyl)-thiazolo[5,4-d]pyrimidine-5,7-diamine] |
| – | – | – | ≤ 1000 | ≤ 250 | ≤ 250 | ≤ 250 | CCc1nc2c(N[C@H]3CC[C@H](N4CCOCC4)CC3)nc(Nc3cnn(C4CCOCC4)c3)nc2s1 [Compound I-9, 2-ethyl-5-N-[1-(oxan-4-yl)-1H-pyrazol-4-yl]-7-N—[trans-4-(morpholin-4-yl)cyclohexyl]-[1,3]thiazolo[5,4-d]pyrimidine-5,7-diamine] |

Reference: patent US9518065B2, “IRAK inhibitors and uses thereof” (NIMBUS IRIS, INC., priority 2013, dated 2016)
